Measurements taken from patent US8846393B2, “Methods of improving stem cell homing and engraftment” (Gamida-Cell Ltd., priority 2005, dated 2014).

System: NOD/SCID mice
Test: Transplantation of human CD34+ cells into NOD/SCID mice, engraftment and quantification of SCID repopulating cells
Format: in vivo
Details: for engraftment (mice positively engrafted): 3-weeks with cytokines+NA, 4-weeks post transplantation
Excerpt: FIGS. 4a-4f is a graphic representation of the effect of nicotinamide on homing and engraftment of human hematopoietic cells transplanted into NOD/SCID mice. FIGS. 4a and 4b show the percentage of human (CD45+) cells in the cell populations before transplantation: non-cultured CD34^+ cells (non-cultured, gray ovals), the entire progeny of cultures following 3-week exposure to cytokines alone (cytokines alone, closed ovals), or cytokines and nicotinamide (cytokines+NA, arrows). The percent of engraftment 4 weeks post transplantation was determined by flow cytometry of human CD45 cells in the NOD/SCID marrow (y-axis). The numbers of SCID repopulating cells (SRC) were calculated by plotting the engraftment frequencies at each dose. The resultant curves indicates the estimated frequency of SRCs within non-cultured CD34+ cells (FIG. 4c), culture with cytokines (FIG. 4d) or cytokines and nicotinamide (FIG. 4e). The number shown in each box indicates the calculated frequency of SRCs using the maximum likelihood estimator. […] Mouse bone marrow cells were dually stained with FITC-conjugated anti-CD45 (human) and antibodies to human differentiation markers as indicated. Percentages of dual positive cells are shown within each quadrant. Note the greater than 7 fold enhancement of engraftment in the nicotinamide-treated mice (FIG. 4e), as compared with mice treated with cytokines alone (FIG. 4d); FIGS. 5a-5c are a graphic representation of the effect of nicotinamide (NA) on the engraftment potential of cells cultured under differentiation-promoting conditions. Cultures were initiated with purified cord blood-derived CD34+ cells in medium supplemented with SCF, TPO, IL-6 and FLT3, 50 ng/ml each, and IL-3, 20 ng/ml, with (cytokines+NA, arrows) or without (cytokines, ovals) 10 mM nicotinamide. After 3 weeks, cells were harvested, and transplanted into SCID mice as indicated. Mice were transplanted with 1.25−5×10^4 CD34+ cells or with their progeny following expansion. Mice were sacrificed 4 weeks later and bone marrow cells were analyzed by FACS for the presence of CD34+ (human progenitor) and CD45+ (human) cells. Mice were scored as engrafted when the number of human (CD45+) cells constituted […] of the marrow population. […] FIGS. 4b and 4c show the percentage of total human (CD45+) (FIG. 4b) cells and human progenitor (CD45+CD34+) (FIG. 4c) cells in the bone marrow of mice transplanted with cells derived from culture initiated with 1.25×10^4 CD34+ cells. Note the enhanced engraftment of both total human, and human progenitor cells resulting from nicotinamide treatment. Purified CD34+ cells were cultured in culture bags (American Fluoroseal Co., Gaithersburg, Md.) at 1×10^4 cells/ml in MEMα medium, 10% fetal calf serum (FCS) and cytokines: Thrombopoietin (TPO), interleukin-6 (IL-6), FLT-3 ligand and stem cell factor (SCF), each at a final concentration of 50 ng/ml (Perpo Tech, Inc., Rocky Hill, N.J.), with or without 5 mM nicotinamide (NA) (Sigma Aldrich, Milwaukee, Wis.) and incubated at 37° C. in a humidified atmosphere of 5% CO2 in air. […] Until week 3, the cultures were topped weekly with the same volume of fresh medium and then weekly demi-depopulated. Cell counting, colony forming unit (CFUc) assay and immunophenotype analysis were performed as described hereinbelow. NOD/SCID mice were bred and maintained in sterile intra-ventilated cages (Techniplast, Bugugiatte, Italy). Eight-week-old mice were sub-lethally irradiated as described above. […]

NC(=O)c1cccnc1 [nicotinamide]
mice with human (CD45+) cells in bone marrow (IL-3 supplemented cultures (SCF, TPO, IL-6, FLT3, IL-3) with 10 mM nicotinamide, 1.25×10^4 cells, 4 weeks): 5 out of 5
engraftment of human progenitors (CD45+CD34+) (IL-3 supplemented cultures with 10 mM nicotinamide, 4-weeks after transplantation): observed only in mice transplanted with cells cultured with nicotinamide
number of SRCs relative to non-cultured cells (culture with nicotinamide and cytokines): 14 fold
engraftment (mice positively engrafted) (progeny of 3×10^3 CB CD34+ cells): 50%
engraftment (mice positively engrafted) (progeny of 6×10^3 CD34+ cells): 100%
